Source: patent US9464045B2, “Process for the preparation of methionine” (EVONIK DEGUSSA GmbH, priority 2012, dated 2016)

Assay: Recrystallization of methionine in the presence of additives (procedure of Example 1): amount of foam and bulk density
Assay type: physicochemical
Details: bulk density of dried methionine; additive concentration 400 ppm
Protocol: 60 g of methionine, 305 g of water and 35 g of crude methionine filtrate were introduced into a flask and circulated via a heat exchanger by pumping at a temperature of 40° C. As a result of the potassium carbonate present in the crude methionine filtrate, the potassium ion concentration was ca. 7 g/kg. A solution, heated to 90° C., of 150 g of methionine in 990.5 ml of water and 109.5 g of crude methionine filtrate was added to this suspension at a rate of 18 ml/min, during which the temperature of the initial charge of suspension was kept at 40° C. After adding 650 ml of the hot solution, 500 ml of suspension were removed and then a further 500 ml of the hot solution were metered in at a rate of 18 ml/min. The resulting suspension was discharged, the amount of foam was determined, and the methionine was filtered off and washed with 300 ml of acetone. After drying the methionine, the bulk density was determined.
The recrystallization experiments were carried out in the presence of the following additives, the stated concentration being established by adding the additive to both starting solutions/suspensions. The concentration data give the total active ingredient content of the additive without water based on the total mass of the solution or suspension. Additive 1 was an aqueous mixture of antifoam and crystallization additive according to EP […] […]

polyethoxylated (20 EO) sorbitan tristearate [Additive 24]
Bulk density: 616 g/L
